# Test results reported in article PMC6585789 (American Journal of Hematology, 2017).
# Key:
# [1] = potentially due to induction of metabolizing enzymes; cited from earlier work
# [2] = system: subjects with newly diagnosed AML harboring FLT3 mutations; conditions: in combination with standard first line chemotherapy; cited from earlier work
# [3] = system: subjects with FLT3‐ITD–mutated AML following HCT; conditions: sorafenib maintenance following HCT; cited from earlier work
# [4] = Plasma pharmacokinetics of quizartinib and AC886; format: in vivo, human
smiles,measurement,setting,value
CO[C@@H]1[C@H](N(C)C(=O)c2ccccc2)C[C@H]2O[C@]1(C)n1c3ccccc3c3c4c(c5c6ccccc6n2c5c31)C(=O)NC4 [midostaurin],Plasma concentrations during continuous dosing,[1],decrease during continuous dosing
same,OS benefit,[2],significant OS benefit
CNC(=O)c1cc(Oc2ccc(NC(=O)Nc3ccc(Cl)c(C(F)(F)F)c3)cc2)ccn1 [sorafenib],1‐year OS,[3],95%
same,1‐year progression‐free survival (PFS),[3],85%
"CC(C)(C)c1cc(NC(=O)Nc2ccc(-c3cn4c(n3)sc3cc(OCCN5CCOCC5)ccc34)cc2)no1.Cl.Cl [quizartinib, N‐(5‐tert‐butyl‐isoxazol‐3‐yl)‐N′‐{4‐[7‐(2‐morpholin‐4‐yl‐ethoxy)imidazo[2,1‐b][1, 3]benzothiazol‐2‐yl]phenyl}urea dihydrochloride]",Plasma trough concentrations reached steady state by,[4]; daily administration,~15 days
same,Mean trough concentration,"[4]; from cycle 2 onward, continuous administration",> 300 ng/mL
same,Tmax,"[4]; human, plasma, oral",2 to 3.21 h
same,Increase in geometric mean AUC0–24 during multiple dosing,"[4]; quizartinib, both doses",approximately 5 fold
